Source: the NIST ThermoML archive (doi:10.1021/je060271a)
± gives the expanded uncertainty stated by the source.

Settings: 343.15 K, Liquid, Vibrating tube method

In the case of `CCCCCCCC(=O)OCC(COC(=O)CCCCCCC)(COC(=O)CCCCCCC)COC(=O)CCCCCCC` [pentaerythritol tetraoctanoate], the mass density (665.9 kPa) is reported as 926.5 ± 1.6 kg/m3, the mass density (687.8 kPa) is reported as 926.6 ± 1.1 kg/m3 and the mass density (706.6 kPa) is reported as 926.4 ± 1.1 kg/m3. The mass density (730 kPa) was 926.5 ± 1.1 kg/m3, the mass density (755.6 kPa) was 926.6 ± 1.1 kg/m3 and the mass density (778.5 kPa) was 926.5 ± 1.1 kg/m3. For the same molecule, the mass density (802.8 kPa) was 926.6 ± 1.1 kg/m3, the mass density (832.2 kPa) was 926.4 ± 1.1 kg/m3 and the mass density (862.6 kPa) was 926.6 ± 1.1 kg/m3. The mass density (881.1 kPa) was 926.6 ± 1.1 kg/m3, the mass density (902.3 kPa) was 926.7 ± 1.1 kg/m3 and the mass density (920.9 kPa) was 926.6 ± 1.1 kg/m3. The mass density (940.4 kPa) was 926.6 ± 1.1 kg/m3, the mass density (964.7 kPa) was 926.7 ± 1.1 kg/m3 and the mass density (985.7 kPa) was 926.6 ± 1.1 kg/m3. The mass density (1011.4 kPa) was 926.8 ± 1.1 kg/m3, the mass density (1034.9 kPa) was 926.7 ± 1.1 kg/m3 and the mass density (1063.7 kPa) was 926.8 ± 1.1 kg/m3. For the same molecule, the mass density (1088.9 kPa) was 926.8 ± 1.1 kg/m3, the mass density (1119.9 kPa) was 926.8 ± 1.1 kg/m3 and the mass density (1147.2 kPa) was 926.8 ± 1.1 kg/m3. For the same molecule, the mass density (1182.1 kPa) was 926.7 ± 1.1 kg/m3, the mass density (1218.2 kPa) was 926.8 ± 1.1 kg/m3 and the mass density (1249.3 kPa) was 926.9 ± 1.1 kg/m3. For the same molecule, the mass density (1282.5 kPa) was 926.8 ± 1.1 kg/m3, the mass density (1323.6 kPa) was 927.1 ± 1.1 kg/m3 and the mass density (1359.7 kPa) was 927 ± 1.1 kg/m3. The mass density (1406.5 kPa) was 926.9 ± 1.1 kg/m3, the mass density (1447.6 kPa) was 927 ± 1.1 kg/m3 and the mass density (1490.5 kPa) was 927 ± 1.1 kg/m3. It also gave a mass density (1543.8 kPa) of 927.1 ± 1.1 kg/m3, a mass density (1590.8 kPa) of 927.1 ± 1.1 kg/m3 and a mass density (1650.5 kPa) of 927.1 ± 1.1 kg/m3. It also gave a mass density (1702.4 kPa) of 927.2 ± 1.1 kg/m3, a mass density (1763.5 kPa) of 927.2 ± 1.1 kg/m3 and a mass density (1794.1 kPa) of 927.3 ± 1.1 kg/m3. For the same molecule, the mass density (1881.2 kPa) was 927.4 ± 1.1 kg/m3, the mass density (1905.6 kPa) was 927.4 ± 1.1 kg/m3 and the mass density (1913.3 kPa) was 927.3 ± 1.1 kg/m3. It also gave a mass density (1919.7 kPa) of 927.4 ± 1.1 kg/m3, a mass density (1926.3 kPa) of 927.3 ± 1.1 kg/m3 and a mass density (1934.1 kPa) of 927.4 ± 1.1 kg/m3. It also gave a mass density (1941 kPa) of 927.5 ± 1.1 kg/m3, a mass density (1952.7 kPa) of 927.5 ± 1.1 kg/m3 and a mass density (1970.2 kPa) of 927.3 ± 1.1 kg/m3. For the same molecule, the mass density (2032.8 kPa) was 927.4 ± 1.1 kg/m3, the mass density (2121.2 kPa) was 927.7 ± 1.1 kg/m3 and the mass density (2203.7 kPa) was 927.5 ± 1.1 kg/m3. For the same molecule, the mass density (2331.4 kPa) was 927.7 ± 1.1 kg/m3, the mass density (2366.8 kPa) was 927.7 ± 1.1 kg/m3 and the mass density (2379.6 kPa) was 927.9 ± 1.1 kg/m3. It also gave a mass density (2393.5 kPa) of 927.8 ± 1.1 kg/m3, a mass density (2403.9 kPa) of 927.9 ± 1.1 kg/m3 and a mass density (2415.5 kPa) of 927.8 ± 1.1 kg/m3. For the same molecule, the mass density (2424.6 kPa) was 927.8 ± 1.1 kg/m3, the mass density (2434.6 kPa) was 927.8 ± 1.1 kg/m3 and the mass density (2446.8 kPa) was 927.8 ± 1.1 kg/m3. For the same molecule, the mass density (2457.7 kPa) was 927.7 ± 1.1 kg/m3, the mass density (2468.6 kPa) was 927.9 ± 1.1 kg/m3 and the mass density (2480.2 kPa) was 927.8 ± 1.1 kg/m3. It also gave a mass density (2493.9 kPa) of 927.9 ± 1.6 kg/m3, a mass density (2505.4 kPa) of 927.9 ± 1.1 kg/m3 and a mass density (2519.4 kPa) of 927.9 ± 1.1 kg/m3. It also gave a mass density (2531.1 kPa) of 927.9 ± 1.1 kg/m3, a mass density (2543 kPa) of 927.9 ± 1.1 kg/m3 and a mass density (2555.2 kPa) of 927.8 ± 1.1 kg/m3. For the same molecule, the mass density (2569.2 kPa) was 927.9 ± 1.1 kg/m3, the mass density (2581.3 kPa) was 928 ± 1.1 kg/m3 and the mass density (2593.5 kPa) was 927.9 ± 1.1 kg/m3. It also gave a mass density (2608.2 kPa) of 928 ± 1.1 kg/m3, a mass density (2620.9 kPa) of 927.9 ± 1.1 kg/m3 and a mass density (2633.4 kPa) of 928.1 ± 1.1 kg/m3. The mass density (2646.4 kPa) was 927.9 ± 1.1 kg/m3, the mass density (2659 kPa) was 928 ± 1.1 kg/m3 and the mass density (2674.6 kPa) was 928 ± 1.1 kg/m3. It also gave a mass density (2687.8 kPa) of 928 ± 1.1 kg/m3, a mass density (2700.8 kPa) of 928 ± 1.1 kg/m3 and a mass density (2713.8 kPa) of 927.9 ± 1.1 kg/m3. The mass density (2729.6 kPa) was 928.1 ± 1.1 kg/m3, the mass density (2743.3 kPa) was 928 ± 1.1 kg/m3 and the mass density (2756.7 kPa) was 927.9 ± 1.1 kg/m3. It also gave a mass density (2773 kPa) of 927.9 ± 1.1 kg/m3, a mass density (2786.3 kPa) of 928.1 ± 1.1 kg/m3 and a mass density (2800.4 kPa) of 928 ± 1.1 kg/m3. For the same molecule, the mass density (2814.8 kPa) was 928.1 ± 1.1 kg/m3, the mass density (2830 kPa) was 928.1 ± 1.1 kg/m3 and the mass density (2846.9 kPa) was 928.2 ± 1.1 kg/m3. The mass density (2861.3 kPa) was 928.1 ± 1.1 kg/m3, the mass density (2875.3 kPa) was 928.1 ± 1.1 kg/m3 and the mass density (2892.3 kPa) was 928.1 ± 1.1 kg/m3. The mass density (2907 kPa) was 928.1 ± 1.1 kg/m3, the mass density (2921.6 kPa) was 928.2 ± 1.1 kg/m3 and the mass density (2936.8 kPa) was 928.1 ± 1.1 kg/m3. The mass density (2955 kPa) was 928.2 ± 1.1 kg/m3, the mass density (2969.8 kPa) was 928.1 ± 1.1 kg/m3 and the mass density (2988.2 kPa) was 928.2 ± 1.1 kg/m3. It also gave a mass density (3003.6 kPa) of 928.1 ± 1.1 kg/m3, a mass density (3019.4 kPa) of 928.3 ± 1.1 kg/m3 and a mass density (3035.5 kPa) of 928.4 ± 1.1 kg/m3. It also gave a mass density (3053.7 kPa) of 928.2 ± 1.1 kg/m3, a mass density (3070.2 kPa) of 928.3 ± 1.1 kg/m3 and a mass density (3085.9 kPa) of 928.2 ± 1.1 kg/m3. For the same molecule, the mass density (3102.6 kPa) was 928.4 ± 1.1 kg/m3, the mass density (3121.8 kPa) was 928.3 ± 1.1 kg/m3 and the mass density (3138.3 kPa) was 928.4 ± 1.1 kg/m3. The mass density (3154.9 kPa) was 928.4 ± 1.1 kg/m3, the mass density (3175.2 kPa) was 928.3 ± 1.1 kg/m3 and the mass density (3191.8 kPa) was 928.3 ± 1.1 kg/m3. It also gave a mass density (3209 kPa) of 928.3 ± 1.1 kg/m3, a mass density (3229.6 kPa) of 928.4 ± 1.1 kg/m3 and a mass density (3247 kPa) of 928.4 ± 1.1 kg/m3. For the same molecule, the mass density (3264.6 kPa) was 928.4 ± 1.1 kg/m3, the mass density (3285.8 kPa) was 928.4 ± 1.1 kg/m3 and the mass density (3303.6 kPa) was 928.5 ± 1.1 kg/m3. The mass density (3321.5 kPa) was 928.5 ± 1.1 kg/m3, the mass density (3343 kPa) was 928.5 ± 1.1 kg/m3 and the mass density (3361.5 kPa) was 928.6 ± 1.1 kg/m3. The mass density (3379.9 kPa) was 928.5 ± 1.1 kg/m3, the mass density (3398.8 kPa) was 928.5 ± 1.1 kg/m3 and the mass density (3421.3 kPa) was 928.5 ± 1.1 kg/m3. For the same molecule, the mass density (3440 kPa) was 928.4 ± 1.1 kg/m3, the mass density (3463.2 kPa) was 928.4 ± 1.1 kg/m3 and the mass density (3482.8 kPa) was 928.5 ± 1.1 kg/m3. For the same molecule, the mass density (3502.4 kPa) was 928.4 ± 1.1 kg/m3, the mass density (3522.3 kPa) was 928.7 ± 1.1 kg/m3 and the mass density (3542.4 kPa) was 928.6 ± 1.1 kg/m3. It also gave a mass density (3566.7 kPa) of 928.7 ± 1.1 kg/m3, a mass density (3583.3 kPa) of 928.6 ± 1.1 kg/m3 and a mass density (3608.1 kPa) of 928.7 ± 1.1 kg/m3. For the same molecule, the mass density (3632.7 kPa) was 928.7 ± 1.1 kg/m3, the mass density (3653.7 kPa) was 928.6 ± 1.1 kg/m3 and the mass density (3674.8 kPa) was 928.8 ± 1.1 kg/m3. The mass density (3695.9 kPa) was 928.7 ± 1.1 kg/m3, the mass density (3721.9 kPa) was 928.7 ± 1.1 kg/m3 and the mass density (3743.4 kPa) was 928.8 ± 1.1 kg/m3. It also gave a mass density (3765.8 kPa) of 928.7 ± 1.1 kg/m3, a mass density (3792.8 kPa) of 928.8 ± 1.1 kg/m3 and a mass density (3815.3 kPa) of 928.8 ± 1.1 kg/m3. For the same molecule, the mass density (3838 kPa) was 928.8 ± 1.1 kg/m3, the mass density (3861 kPa) was 928.9 ± 1.1 kg/m3 and the mass density (3888.6 kPa) was 929 ± 1.1 kg/m3. The mass density (3911.4 kPa) was 929 ± 1.1 kg/m3, the mass density (3935 kPa) was 928.8 ± 1.1 kg/m3 and the mass density (3959.2 kPa) was 928.9 ± 1.1 kg/m3. For the same molecule, the mass density (3987.5 kPa) was 929 ± 1.1 kg/m3, the mass density (4012.2 kPa) was 929 ± 1.1 kg/m3 and the mass density (4037.5 kPa) was 928.9 ± 1.1 kg/m3. For the same molecule, the mass density (4064.5 kPa) was 929 ± 1.1 kg/m3.
